Data on two compounds can be found in patent US20210000912A1, “Compositions And Methods For Prophylaxis Or Treatment Of Pain” (Interk Peptide Therapeutics Limited, priority 2017, published 2021).

Entries after “also recorded” stand apart in the source; their conditions may differ.

In one data set the target is T1, PKG1α (h) (Homo sapiens, UniProt Q13976).
T1 construct: purchased Eurofins Pharma Discovery Services UK Ltd (contract assay service)
T1 sequence (Q13976 1-671): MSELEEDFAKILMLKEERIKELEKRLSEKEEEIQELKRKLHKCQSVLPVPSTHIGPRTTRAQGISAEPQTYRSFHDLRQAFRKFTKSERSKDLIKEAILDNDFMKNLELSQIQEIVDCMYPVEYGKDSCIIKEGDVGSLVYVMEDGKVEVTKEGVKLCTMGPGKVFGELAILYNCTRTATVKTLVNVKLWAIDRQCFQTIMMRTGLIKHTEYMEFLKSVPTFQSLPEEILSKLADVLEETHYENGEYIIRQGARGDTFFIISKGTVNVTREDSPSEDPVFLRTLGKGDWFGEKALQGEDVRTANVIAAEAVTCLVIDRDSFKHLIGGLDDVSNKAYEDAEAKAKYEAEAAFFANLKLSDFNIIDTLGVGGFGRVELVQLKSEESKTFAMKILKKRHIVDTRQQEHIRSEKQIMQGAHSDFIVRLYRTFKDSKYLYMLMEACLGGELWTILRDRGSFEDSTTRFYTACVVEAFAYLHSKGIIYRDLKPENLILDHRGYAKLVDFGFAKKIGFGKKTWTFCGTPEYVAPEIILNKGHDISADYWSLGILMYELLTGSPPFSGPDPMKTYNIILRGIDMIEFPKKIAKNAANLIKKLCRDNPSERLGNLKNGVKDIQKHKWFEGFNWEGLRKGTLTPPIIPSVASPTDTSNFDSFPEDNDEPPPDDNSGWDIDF
Briefly: PKG1α kinase activity assay, cell free. Type of data set: biochemical. As to the method:
(§1) The capacity of test peptides to inhibit the activity of the kinases PKG1α, PKG1β, and Src family kinases in a cell free assay was assessed. The test peptides were amidated at their C-terminal end (indicated by “—NH2”) unless otherwise noted. Kinase activity assays were conducted by Eurofins Pharma Discovery Services UK Ltd (Dundee Technology Park, Dundee, United Kingdom) and Reaction Biology Corp. (Malvern, Pa., USA).
(§2) All test peptides are prepared to 50× final assay concentration in 100% DMSO. This working stock of the test compound is added to assay wells as the first component in the reaction, followed by the remaining components of the respective assay protocols described below. There is no pre-incubation step between the test peptide and the kinase prior to initiation of the reaction. The kinases are diluted in buffer (20 mM MOPS, 1 mM EDTA, 0.01% Brij-35, 5% Glycerol, 0.1% β-mercaptoethanol, 1 mg/mL BSA) prior to addition to the reaction mix.
(§3) Positive control wells contain all components of the reaction, except the test peptide of interest. However, DMSO (at a final concentration of 2%) is included in positive control wells to control for solvent effects. Negative control wells contain all components of the reaction, with a reference inhibitor (staurosporine) replacing the test peptide. This abolishes kinase activity and establishes a base-line (0% kinase activity). Kinase assay protocols (Eurofins Pharma Discovery Services UK Ltd, Dundee Technology Park, Dundee, United Kingdom) are described below. Of the Src family kinases, only the assay protocol for c-Src is shown.
PKG1α (h) is incubated with 8 mM MOPS pH 7.0, 0.2 mM EDTA, 10 μM cGMP, 200 μM peptide RRRLSFAEPG, 10 mM magnesium acetate and [γ-^33P]-ATP (specific activity approx. 500 cpm/pmol, concentration as required). The reaction is initiated by the addition of the MgATP mix. After incubation for 40 minutes at room temperature, the reaction is stopped by the addition of 3% phosphoric acid solution. A 10 μL aliquot of the reaction is then spotted onto a P30 filtermat and washed three times for 5 mins in 75 mM phosphoric acid and once in methanol prior to drying and scintillation counting.

Another data set addresses T2, PKG1β (h) (Homo sapiens, UniProt Q13976).
T2 construct: purchased Eurofins Pharma Discovery Services UK Ltd (contract assay service)
T2 sequence (Q13976 1-686 isoform Q13976-2): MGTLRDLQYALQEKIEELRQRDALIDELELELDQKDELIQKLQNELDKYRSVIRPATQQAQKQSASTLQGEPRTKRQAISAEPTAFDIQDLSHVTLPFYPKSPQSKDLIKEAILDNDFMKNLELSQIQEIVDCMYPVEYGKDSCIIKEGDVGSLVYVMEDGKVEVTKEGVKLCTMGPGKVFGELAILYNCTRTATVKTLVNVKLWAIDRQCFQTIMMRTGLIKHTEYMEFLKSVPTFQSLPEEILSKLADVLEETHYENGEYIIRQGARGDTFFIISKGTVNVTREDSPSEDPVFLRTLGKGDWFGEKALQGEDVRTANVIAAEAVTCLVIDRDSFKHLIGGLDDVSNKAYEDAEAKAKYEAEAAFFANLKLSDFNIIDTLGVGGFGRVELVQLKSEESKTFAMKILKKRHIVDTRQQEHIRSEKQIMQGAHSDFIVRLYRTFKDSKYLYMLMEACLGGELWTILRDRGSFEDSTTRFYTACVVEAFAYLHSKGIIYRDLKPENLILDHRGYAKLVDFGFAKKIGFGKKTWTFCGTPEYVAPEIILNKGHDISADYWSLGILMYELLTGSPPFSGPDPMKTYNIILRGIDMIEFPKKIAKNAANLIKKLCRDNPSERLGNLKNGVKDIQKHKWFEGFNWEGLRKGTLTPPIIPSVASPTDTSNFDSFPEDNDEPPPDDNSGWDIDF
The data set can be described thus: PKG1β kinase activity assay, cell free. It counts as biochemical. On the procedure: as §1, §2, §3
PKG1b(h) is incubated with 8 mM MOPS pH 7.0, 0.2 mM EDTA, 10 μM cGMP, 200 μM RRRLSFAEPG, 10 mM magnesium acetate and [γ-^33P]-ATP (specific activity approx. 500 cpm/pmol, concentration as required). The reaction is initiated by the addition of the MgATP mix. After incubation for 40 minutes at room temperature, the reaction is stopped by the addition of 3% phosphoric acid solution. A 10 μL aliquot of the reaction is then spotted onto a P30 filtermat and washed three times for 5 mins in 75 mM phosphoric acid and once in methanol prior to drying and scintillation counting.

Data set [1] in a line: Resistance to simulated gastric fluid. It counts as in vitro ADME. On the procedure: Test 14 Arg peptides consisting of 14 contiguous L- or D-arginine amino acids were tested for resistance to simulated gastric fluid (porcine pepsin in a HCl and NaCl solution) at a pH of 2.01 for a period of 24 hours. Negligible degradation of each peptide was observed by exposure to the simulated gastric fluid over the 24 hour test period.

In the next data set the target is T3, c-Src (h) (Homo sapiens, UniProt P12931).
T3 construct: purchased Eurofins Pharma Discovery Services UK Ltd (contract assay service)
Briefly: c-Src kinase activity assay, cell free. It counts as biochemical. On the procedure: as §1, §2, §3
c-Src (h) is incubated with 8 mM MOPS pH 7.0, 0.2 mM EDTA, 250 μM KVEKIGEGTYGVVYK (Cdc2 peptide), 10 mM MgAcetate and [γ-^33P]-ATP (specific activity approx. 500 cpm/pmol, concentration as required). The reaction is initiated by the addition of the MgATP mix. After incubation for 40 minutes at room temperature, the reaction is stopped by the addition of 3% phosphoric acid solution. A 10 μL aliquot of the reaction is then spotted onto a P30 filtermat and washed three times for 5 minutes in 75 mM phosphoric acid and once in methanol prior to drying and scintillation counting.

Data set [2] relates to CFA-injected mice. The data set can be described thus: Grip strength testing in CFA study. The conditions noted are these: intra-peritoneal, CFA study. Type of data set: in vivo, C57Bl/6 mice. As to the method:
Forepaw grip strength was determined using a grip strength meter (DFIS-2 series digital force gauge, Columbus Instruments, Columbus, Ohio). The animals' forelimbs were placed on a horizontal bar connected to a force gauge. The animal was the gently pulled away from the bar and the peak force required for a release was recorded. Each mouse was tested 3 times, with a 1 min inter-trial interval (Martinez-Huenchullan, S. F., et al., “Utility and reliability of non-invasive muscle function tests in high-fat-fed mice”. Experimental Physiology, 2017. 102(7): p. 773-778). The average peak tension (g), and tension normalised to body weight were compared.

Data set [3] concerns CFA-injected mice. The data set can be described thus: CFA inflammatory pain model, incapacitance testing.

T3 sequence (P12931 whole entry): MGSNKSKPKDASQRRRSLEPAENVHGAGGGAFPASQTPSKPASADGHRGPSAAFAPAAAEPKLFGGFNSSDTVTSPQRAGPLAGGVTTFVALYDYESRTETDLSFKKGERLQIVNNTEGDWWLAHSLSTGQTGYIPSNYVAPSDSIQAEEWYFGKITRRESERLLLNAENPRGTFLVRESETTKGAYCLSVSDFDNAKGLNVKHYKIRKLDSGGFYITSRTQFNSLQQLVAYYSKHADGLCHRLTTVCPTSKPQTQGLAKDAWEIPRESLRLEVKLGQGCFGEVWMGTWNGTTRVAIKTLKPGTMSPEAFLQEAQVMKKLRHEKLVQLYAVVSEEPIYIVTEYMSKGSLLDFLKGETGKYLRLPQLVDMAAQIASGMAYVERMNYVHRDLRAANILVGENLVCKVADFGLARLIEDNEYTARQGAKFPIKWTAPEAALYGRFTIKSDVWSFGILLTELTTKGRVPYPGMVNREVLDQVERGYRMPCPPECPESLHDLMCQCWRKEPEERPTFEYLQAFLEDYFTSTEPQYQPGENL

In general, IC50 refers to the concentration that gives 50% inhibition. Low readings indicate higher potency, high ones lower potency. In the case of `N=C(N)NCCC[C@@H](N)C(=O)N[C@H](CCCNC(=N)N)C(=O)N[C@H](CCCNC(=N)N)C(=O)N[C@H](CCCNC(=N)N)C(=O)N[C@H](CCCNC(=N)N)C(=O)N[C@H](CCCNC(=N)N)C(=O)N[C@H](CCCNC(=N)N)C(=O)N[C@H](CCCNC(=N)N)C(=O)N[C@H](CCCNC(=N)N)C(=O)N[C@H](CCCNC(=N)N)C(=O)N[C@H](CCCNC(=N)N)C(=O)N[C@H](CCCNC(=N)N)C(=O)N[C@H](CCCNC(=N)N)C(=O)N[C@H](CCCNC(=N)N)C(N)=O` [IKD01400, rrrrrrrrrrrrrr-NH2], the 50% inhibitory concentration (IC50) against PKG1α (h) was 11 nM; at PKG1β (h) it was 10 nM; on c-Src (h) it was 6 nM. Further, the remaining at 1 h in data set [1] (pig, simulated gastric fluid with porcine pepsin, simulated gastric fluid pH 2.01, 1 hr, read-out: % of intact peptide observed) is 98.9%. Further, the remaining at 4 h in data set [1] (pig, simulated gastric fluid with porcine pepsin, simulated gastric fluid pH 2.01, 4 hrs, read-out: % of intact peptide observed) was 98.7%. Also, in data set [1] (pig, simulated gastric fluid with porcine pepsin, simulated gastric fluid pH 2.01, 24 hrs, read-out: % of intact peptide observed), the remaining at 24 h was 97.5%. Further, the “% of intact peptide observed” value in data set [1] (simulated gastric fluid pH 2.01, time 0) is 98.79%.
For `CN1CC[C@]23c4c5ccc(O)c4O[C@H]2[C@@H](O)C=C[C@H]3[C@H]1C5` [morphine], in the data set on CFA-injected mice [2], the “grip strength compared to vehicle control” value is reported as “increased grip strength”. Moreover, the “effectiveness in incapacitance test, morphine versus IK01400, pooled data” value in the data set on CFA-injected mice [3] (first 30 minutes after injection) is recorded as “more effective”. Moreover, in the data set on CFA-injected mice [3] (mice, intra-peritoneal), the hyperactivity result was “observed to induce hyperactivity”. The “effectiveness in incapacitance test, morphine versus IK01400 (8.6 mg/kg)” value in the data set on CFA-injected mice [3] (second hour after administration) is “less effective than IK01400; also recorded: reduced”.
